This note sets out measurements from patent US11198713B2, “Agents modulating beta-catenin functions and methods thereof” (FOG PHARMACEUTICALS, INC., priority 2017, dated 2021).

The term EC50 denotes the midpoint of the concentration-response curve.

Each structure is given as a SMILES string.

The test concerns the target T1, full-length beta-catenin (Axin site) (Homo sapiens, UniProt P35222).
T1 construct: 15 nM full-length beta-catenin, 20 nM FITC labeled peptide in buffer
T1 sequence (P35222 1-781): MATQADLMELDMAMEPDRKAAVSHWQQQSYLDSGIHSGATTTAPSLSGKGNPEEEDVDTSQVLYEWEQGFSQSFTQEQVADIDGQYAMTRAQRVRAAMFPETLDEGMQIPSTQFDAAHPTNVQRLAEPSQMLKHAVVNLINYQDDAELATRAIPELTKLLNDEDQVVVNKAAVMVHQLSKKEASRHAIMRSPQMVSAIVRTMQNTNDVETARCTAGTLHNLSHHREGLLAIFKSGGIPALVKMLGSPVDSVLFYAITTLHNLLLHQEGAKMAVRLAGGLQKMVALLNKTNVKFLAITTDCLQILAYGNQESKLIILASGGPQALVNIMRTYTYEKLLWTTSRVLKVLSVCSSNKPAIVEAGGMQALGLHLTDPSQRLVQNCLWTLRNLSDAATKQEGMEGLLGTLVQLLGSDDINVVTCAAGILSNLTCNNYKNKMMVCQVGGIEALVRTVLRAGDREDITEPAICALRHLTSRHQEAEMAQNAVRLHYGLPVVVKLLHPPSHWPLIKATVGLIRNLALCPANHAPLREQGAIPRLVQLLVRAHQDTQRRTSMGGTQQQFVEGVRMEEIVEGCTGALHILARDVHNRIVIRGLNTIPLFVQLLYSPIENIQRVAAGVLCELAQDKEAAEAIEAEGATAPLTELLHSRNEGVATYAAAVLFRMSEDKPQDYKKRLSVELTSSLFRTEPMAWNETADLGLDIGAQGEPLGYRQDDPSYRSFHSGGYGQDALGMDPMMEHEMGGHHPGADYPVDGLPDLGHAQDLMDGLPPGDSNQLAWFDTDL
In words: Competition fluorescence polarization assay (Axin site probe). It is filed as binding. To be noted: competition fluorescence polarization, Table 2; read-out: in vitro FP EC50. An outline of the steps: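 Competition FP: 15 nM full-length β-catenin pre-incubated 5 min with 20 nM FITC-labelled stapled Axin-site peptide, then titrated peptide added (3-fold series from 5 μM) for 15 min in the dark. Buffer 50 mM Tris pH 8.0, 250 mM NaCl, 2% glycerol, 0.5 mM EDTA; duplicate reads.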
(In general: In fluorescence polarisation assays a small probe gives low polarisation when free and higher when bound to something large.)
In the case of `CC[C@H](C)[C@@H]1NC(=O)[C@@]2(NC(=O)[C@H](CCC(N)=O)NC(=O)[C@@H]3CCCN3C(C)=O)CCN(C2)C(=O)OCC=CCCCC[C@](C)(C(=O)N[C@@H](Cc2c[nH]cn2)C(=O)N[C@H](C(=O)N[C@@H](CCCNC(=N)N)C(=O)N[C@@H](CCCNC(=N)N)C(=O)N[C@H](C(=O)N[C@@H](Cc2c[nH]c3ccccc23)C(=O)N[C@@H](CCCNC(=N)N)C(N)=O)C(C)C)C(C)C)NC(=O)[C@H](CC(=O)O)NC(=O)[C@H](CC(C)C)NC1=O` (single isomer, unassigned) [FP0745c, Ac-P-Q-MC-I-L-D-R6-H-V-R-R-V-W-R-NH2], the concentration for a half-maximal effect (EC50) lay within 100 to 500 nM.

Turning to `CC[C@H](C)[C@@H]1NC(=O)[C@]2(NC(=O)[C@H](CCC(N)=O)NC(=O)[C@@H]3CCCN3C(C)=O)CCN(CC=CCCC[C@@](C)(C(=O)N[C@@H](Cc3c[nH]cn3)C(=O)N[C@H](C(=O)N[C@@H](CCCNC(=N)N)C(=O)N[C@@H](CCCNC(=N)N)C(=O)N[C@H](C(=O)N[C@@H](Cc3c[nH]c4ccccc34)C(=O)N[C@@H](CCCNC(=N)N)C(N)=O)C(C)C)C(C)C)NC(=O)[C@H](CC(=O)O)NC(=O)[C@H](CC(C)C)NC1=O)C2` (single isomer, unassigned) [FP0751a, Ac-P-Q-MB-I-L-D-S5-H-V-R-R-V-W-R-NH2], the EC50 was > 5000 nM.

On to `CC[C@H](C)[C@@H]1NC(=O)[C@]2(NC(=O)[C@H](CCC(N)=O)NC(=O)[C@@H]3CCCN3C(C)=O)CCN(C2)C(=O)OCC=CCCC[C@@](C)(C(=O)N[C@@H](Cc2c[nH]cn2)C(=O)N[C@H](C(=O)N[C@@H](CCCNC(=N)N)C(=O)N[C@@H](CCCNC(=N)N)C(=O)N[C@H](C(=O)N[C@@H](Cc2c[nH]c3ccccc23)C(=O)N[C@@H](CCCNC(=N)N)C(N)=O)C(C)C)C(C)C)NC(=O)[C@H](CC(=O)O)NC(=O)[C@H](CC(C)C)NC1=O` (single isomer, unassigned) [FP0751c, Ac-P-Q-MB-I-L-D-S5-H-V-R-R-V-W-R-NH2], for which the concentration for a half-maximal effect (EC50) fell in the range of 500 to 5000 nM.

On to `CC[C@H](C)[C@@H]1NC(=O)[C@]2(NC(=O)[C@H](CCC(N)=O)NC(=O)[C@@H]3CCCN3C(C)=O)CCN(C2)C(=O)OCC=CCCCC[C@@](C)(C(=O)N[C@@H](Cc2c[nH]cn2)C(=O)N[C@H](C(=O)N[C@@H](CCCNC(=N)N)C(=O)N[C@@H](CCCNC(=N)N)C(=O)N[C@H](C(=O)N[C@@H](Cc2c[nH]c3ccccc23)C(=O)N[C@@H](CCCNC(=N)N)C(N)=O)C(C)C)C(C)C)NC(=O)[C@H](CC(=O)O)NC(=O)[C@H](CC(C)C)NC1=O` (single isomer, unassigned) [FP0752c, Ac-P-Q-MB-I-L-D-S6-H-V-R-R-V-W-R-NH2], for which the EC50 lay within 500 to 5000 nM.

For `CC[C@H](C)[C@@H]1NC(=O)[C@]2(NC(=O)[C@H](CCC(N)=O)NC(=O)[C@@H]3CCCN3C(C)=O)CCN(CC=CCCCCC[C@@](C)(C(=O)N[C@@H](Cc3c[nH]cn3)C(=O)N[C@H](C(=O)N[C@@H](CCCNC(=N)N)C(=O)N[C@@H](CCCNC(=N)N)C(=O)N[C@H](C(=O)N[C@@H](Cc3c[nH]c4ccccc34)C(=O)N[C@@H](CCCNC(=N)N)C(N)=O)C(C)C)C(C)C)NC(=O)[C@H](CC(=O)O)NC(=O)[C@H](CC(C)C)NC1=O)C2` (single isomer, unassigned) [FP0753a, Ac-P-Q-MB-I-L-D-S7-H-V-R-R-V-W-R-NH2], the half-maximal effective concentration (EC50) was > 5000 nM.

In the case of `CC[C@H](C)[C@@H]1NC(=O)[C@](C)(NC(=O)[C@H](CCC(N)=O)NC(=O)[C@@H]2CCCN2C(C)=O)CCCC=CCN2CC[C@@](C(=O)N[C@@H](Cc3c[nH]cn3)C(=O)N[C@H](C(=O)N[C@@H](CCCNC(=N)N)C(=O)N[C@@H](CCCNC(=N)N)C(=O)N[C@H](C(=O)N[C@@H](Cc3c[nH]c4ccccc34)C(=O)N[C@@H](CCCNC(=N)N)C(N)=O)C(C)C)C(C)C)(C2)NC(=O)[C@H](CC(=O)O)NC(=O)[C@H](CC(C)C)NC1=O` (single isomer, unassigned) [FP0758a, Ac-P-Q-R5-I-L-D-MB-H-V-R-R-V-W-R-NH2], the EC50 was > 5000 nM.

With `CC[C@H](C)[C@@H]1NC(=O)[C@](C)(NC(=O)[C@H](CCC(N)=O)NC(=O)[C@@H]2CCCN2C(C)=O)CCCC=CCOC(=O)N2CC[C@@](C(=O)N[C@@H](Cc3c[nH]cn3)C(=O)N[C@H](C(=O)N[C@@H](CCCNC(=N)N)C(=O)N[C@@H](CCCNC(=N)N)C(=O)N[C@H](C(=O)N[C@@H](Cc3c[nH]c4ccccc34)C(=O)N[C@@H](CCCNC(=N)N)C(N)=O)C(C)C)C(C)C)(C2)NC(=O)[C@H](CC(=O)O)NC(=O)[C@H](CC(C)C)NC1=O` (single isomer, unassigned) [FP0758c, Ac-P-Q-R5-I-L-D-MB-H-V-R-R-V-W-R-NH2], the concentration for a half-maximal effect (EC50) was 500 to 5000 nM.

In the case of `CC[C@H](C)[C@@H]1NC(=O)[C@@](C)(NC(=O)[C@H](CCC(N)=O)NC(=O)[C@@H]2CCCN2C(C)=O)CCCCC=CCOC(=O)N2CC[C@@](C(=O)N[C@@H](Cc3c[nH]cn3)C(=O)N[C@H](C(=O)N[C@@H](CCCNC(=N)N)C(=O)N[C@@H](CCCNC(=N)N)C(=O)N[C@H](C(=O)N[C@@H](Cc3c[nH]c4ccccc34)C(=O)N[C@@H](CCCNC(=N)N)C(N)=O)C(C)C)C(C)C)(C2)NC(=O)[C@H](CC(=O)O)NC(=O)[C@H](CC(C)C)NC1=O` (single isomer, unassigned) [FP0761c, Ac-P-Q-S6-I-L-D-MB-H-V-R-R-V-W-R-NH2], the EC50 was in the range of 100 to 500 nM.

Take `CC[C@H](C)[C@@H]1NC(=O)[C@@](C)(NC(=O)[C@H](CCC(N)=O)NC(=O)[C@@H]2CCCN2C(C)=O)CCCCCC=CCN2CC[C@@](C(=O)N[C@@H](Cc3c[nH]cn3)C(=O)N[C@H](C(=O)N[C@@H](CCCNC(=N)N)C(=O)N[C@@H](CCCNC(=N)N)C(=O)N[C@H](C(=O)N[C@@H](Cc3c[nH]c4ccccc34)C(=O)N[C@@H](CCCNC(=N)N)C(N)=O)C(C)C)C(C)C)(C2)NC(=O)[C@H](CC(=O)O)NC(=O)[C@H](CC(C)C)NC1=O` (single isomer, unassigned) [FP0763a, Ac-P-Q-S7-I-L-D-MB-H-V-R-R-V-W-R-NH2]: the concentration for a half-maximal effect (EC50) lay within 500 to 5000 nM.

As to `CC[C@H](C)[C@@H]1NC(=O)[C@@](C)(NC(=O)[C@H](CCC(N)=O)NC(=O)[C@@H]2CCCN2C(C)=O)CCCCCC=CCOC(=O)N2CC[C@@](C(=O)N[C@@H](Cc3c[nH]cn3)C(=O)N[C@H](C(=O)N[C@@H](CCCNC(=N)N)C(=O)N[C@@H](CCCNC(=N)N)C(=O)N[C@H](C(=O)N[C@@H](Cc3c[nH]c4ccccc34)C(=O)N[C@@H](CCCNC(=N)N)C(N)=O)C(C)C)C(C)C)(C2)NC(=O)[C@H](CC(=O)O)NC(=O)[C@H](CC(C)C)NC1=O` (single isomer, unassigned) [FP0763c, Ac-P-Q-S7-I-L-D-MB-H-V-R-R-V-W-R-NH2], the EC50 lay within 100 to 500 nM.

As for `CC[C@H](C)[C@@H]1NC(=O)[C@](C)(NC(=O)[C@H](CCC(N)=O)NC(=O)[C@@H]2CCCN2C(C)=O)CCCCC=CCN2CC[C@](C(=O)N[C@@H](Cc3c[nH]cn3)C(=O)N[C@H](C(=O)N[C@@H](CCCNC(=N)N)C(=O)N[C@@H](CCCNC(=N)N)C(=O)N[C@H](C(=O)N[C@@H](Cc3c[nH]c4ccccc34)C(=O)N[C@@H](CCCNC(=N)N)C(N)=O)C(C)C)C(C)C)(C2)NC(=O)[C@H](CC(=O)O)NC(=O)[C@H](CC(C)C)NC1=O` (single isomer, unassigned) [FP0767a, Ac-P-Q-R6-I-L-D-MC-H-V-R-R-V-W-R-NH2], the EC50 was 500 to 5000 nM.

As to `CC[C@H](C)[C@@H]1NC(=O)[C@](C)(NC(=O)[C@H](CCC(N)=O)NC(=O)[C@@H]2CCCN2C(C)=O)CCCCC=CCOC(=O)N2CC[C@](C(=O)N[C@@H](Cc3c[nH]cn3)C(=O)N[C@H](C(=O)N[C@@H](CCCNC(=N)N)C(=O)N[C@@H](CCCNC(=N)N)C(=O)N[C@H](C(=O)N[C@@H](Cc3c[nH]c4ccccc34)C(=O)N[C@@H](CCCNC(=N)N)C(N)=O)C(C)C)C(C)C)(C2)NC(=O)[C@H](CC(=O)O)NC(=O)[C@H](CC(C)C)NC1=O` (single isomer, unassigned) [FP0767c, Ac-P-Q-R6-I-L-D-MC-H-V-R-R-V-W-R-NH2], the 50% effective concentration (EC50) was 100 to 500 nM.

As to `CC[C@H](C)[C@@H]1NC(=O)[C@](C)(NC(=O)[C@H](CCC(N)=O)NC(=O)[C@@H]2CCCN2C(C)=O)CCCCCC=CCN2CC[C@](C(=O)N[C@@H](Cc3c[nH]cn3)C(=O)N[C@H](C(=O)N[C@@H](CCCNC(=N)N)C(=O)N[C@@H](CCCNC(=N)N)C(=O)N[C@H](C(=O)N[C@@H](Cc3c[nH]c4ccccc34)C(=O)N[C@@H](CCCNC(=N)N)C(N)=O)C(C)C)C(C)C)(C2)NC(=O)[C@H](CC(=O)O)NC(=O)[C@H](CC(C)C)NC1=O` (single isomer, unassigned) [FP0768a, Ac-P-Q-R7-I-L-D-MC-H-V-R-R-V-W-R-NH2], the concentration for a half-maximal effect (EC50) is > 5000 nM.

As to `CC[C@H](C)[C@@H]1NC(=O)[C@](C)(NC(=O)[C@H](CCC(N)=O)NC(=O)[C@@H]2CCCN2C(C)=O)CCCCCC=CCOC(=O)N2CC[C@](C(=O)N[C@@H](Cc3c[nH]cn3)C(=O)N[C@H](C(=O)N[C@@H](CCCNC(=N)N)C(=O)N[C@@H](CCCNC(=N)N)C(=O)N[C@H](C(=O)N[C@@H](Cc3c[nH]c4ccccc34)C(=O)N[C@@H](CCCNC(=N)N)C(N)=O)C(C)C)C(C)C)(C2)NC(=O)[C@H](CC(=O)O)NC(=O)[C@H](CC(C)C)NC1=O` (single isomer, unassigned) [FP0768c, Ac-P-Q-R7-I-L-D-MC-H-V-R-R-V-W-R-NH2], the concentration giving a half-maximal response (EC50) is 100 to 500 nM.
